# Test results as given in PubChem BioAssay AID1963872 (Molecular Pharmacology Branch, DTP, NCI, 2024).
# System: KRAS patient-derived spheroids with HUVEC/MSC, viability
# Assay: Anticancer human tumor 519858-162-T-J1-PDC patient-derived colon adenocarcinoma cell line growth inhibition [KRAS2]
# Details: for viability, T/C: stronger effect = lower value
# Outline: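 KRAS-mutant tumor cells were grown as spheroids with HUVEC endothelial cells and human MSCs as stroma. Targeted agents were tested alone and with KRAS pathway inhibitors. Doses started at or near clinical Cmax, or 10 microM, descending half-log.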
# [1] = curve of first compound, second compound 0.0316 µM
# [2] = curve of first compound, second compound 0.1 µM
# [3] = curve of first compound, second compound 0.316 µM
# [4] = curve of first compound, second compound 1 µM
# [5] = curve of first compound, second compound 3.16 µM
# [6] = second compound 0.0316 µM, first compound 0.00316 µM
# [7] = second compound 0.0316 µM, first compound 0.01 µM
# [8] = second compound 0.0316 µM, first compound 0.0316 µM
# [9] = second compound 0.1 µM, first compound 0.00316 µM
# [10] = second compound 0.1 µM, first compound 0.01 µM
# [11] = second compound 0.1 µM, first compound 0.0316 µM
# [12] = second compound 0.1 µM, first compound 0.1 µM
# [13] = second compound 0.1 µM, first compound 0.316 µM
# [14] = second compound 0.1 µM, first compound 1 µM
# [15] = second compound 0.316 µM, first compound 0.00316 µM
# [16] = second compound 0.316 µM, first compound 0.01 µM
# [17] = second compound 0.316 µM, first compound 0.0316 µM
# [18] = second compound 0.316 µM, first compound 0.1 µM
# [19] = second compound 0.316 µM, first compound 0.316 µM
# [20] = second compound 0.316 µM, first compound 1 µM
# [21] = second compound 1 µM, first compound 0.00316 µM
# [22] = second compound 1 µM, first compound 0.01 µM
# [23] = second compound 1 µM, first compound 0.0316 µM
# [24] = second compound 1 µM, first compound 0.1 µM
# [25] = second compound 1 µM, first compound 0.316 µM
# [26] = second compound 1 µM, first compound 1 µM
# [27] = second compound 3.16 µM, first compound 0.00316 µM
# [28] = second compound 3.16 µM, first compound 0.01 µM
# [29] = second compound 3.16 µM, first compound 0.0316 µM
# [30] = second compound 3.16 µM, first compound 0.1 µM
# [31] = second compound 3.16 µM, first compound 0.316 µM
# [32] = second compound 3.16 µM, first compound 1 µM
# [33] = curve of first compound, second compound 10 µM
# [34] = second compound 10 µM, first compound 0.0316 µM
# [35] = second compound 10 µM, first compound 0.1 µM
# [36] = second compound 10 µM, first compound 0.316 µM
# [37] = second compound 10 µM, first compound 1 µM
# [38] = second compound 0.1 µM, first compound 0.000316 µM
# [39] = second compound 0.1 µM, first compound 0.001 µM
# [40] = second compound 0.316 µM, first compound 0.000316 µM
# [41] = second compound 0.316 µM, first compound 0.001 µM
# [42] = second compound 1 µM, first compound 0.000316 µM
# [43] = second compound 1 µM, first compound 0.001 µM
# [44] = second compound 3.16 µM, first compound 0.000316 µM
# [45] = second compound 3.16 µM, first compound 0.001 µM
# [46] = second compound 10 µM, first compound 0.00316 µM
# [47] = second compound 10 µM, first compound 0.01 µM
# 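Note: compound exposure lasted seven days before readout.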
# 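Throughout, for viability, T/C: 100% = DMSO vehicle control viability.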
structure (smiles),measurement,setting,value
CCN1CCN(Cc2ccc(Nc3ncc(F)c(-c4cc(F)c5nc(C)n(C(C)C)c5c4)n3)nc2)CC1 + C=CC(=O)N1CCN(c2nc(OCC3CCCN3C)nc3c2CCN(c2cccc4cccc(C)c24)C3)CC1CC#N,IC50,[1],> 1000 nM
same,IC50,[2],599 nM
same,IC50,[3],> 1000 nM
same,IC50,[4],654 nM
same,IC50,[5],> 1000 nM
same,"viability, T/C",[6],76.5%
same,"viability, T/C",[7],57.7%
same,"viability, T/C",[8],72.2%
same,"viability, T/C","second compound 0.0316 µM, first compound 0.1 µM",63.6%
same,"viability, T/C","second compound 0.0316 µM, first compound 0.316 µM",81.8%
same,"viability, T/C","second compound 0.0316 µM, first compound 1 µM",66.2%
same,"viability, T/C",[9],81.6%
same,"viability, T/C",[10],79.1%
same,"viability, T/C",[11],75.8%
same,"viability, T/C",[12],76.4%
same,"viability, T/C",[13],68.7%
same,"viability, T/C",[14],34.9%
same,"viability, T/C",[15],61.7%
same,"viability, T/C",[16],78.4%
same,"viability, T/C",[17],70.7%
same,"viability, T/C",[18],64.9%
same,"viability, T/C",[19],49.1%
same,"viability, T/C",[20],56.5%
same,"viability, T/C",[21],82.1%
same,"viability, T/C",[22],71.8%
same,"viability, T/C",[23],60.8%
same,"viability, T/C",[24],63%
same,"viability, T/C",[25],73%
same,"viability, T/C",[26],38.4%
same,"viability, T/C",[27],51.3%
same,"viability, T/C",[28],86.8%
same,"viability, T/C",[29],64.4%
same,"viability, T/C",[30],69.2%
same,"viability, T/C",[31],76%
same,"viability, T/C",[32],37.4%
COc1cc(Nc2ncc3c(n2)-c2ccc(Cl)cc2C(c2c(F)cccc2OC)=NC3)ccc1C(=O)O + COc1cc2nc(C)nc(NC(C)c3cc(N)cc(C(F)(F)F)c3)c2cc1OC1CCOC1,IC50,[2],> 10000 nM
same,IC50,[3],> 10000 nM
same,IC50,[4],> 10000 nM
same,IC50,[5],> 10000 nM
same,IC50,[33],> 10000 nM
same,"viability, T/C",[11],76.3%
same,"viability, T/C",[12],72.5%
same,"viability, T/C",[13],68%
same,"viability, T/C",[14],75.6%
same,"viability, T/C","second compound 0.1 µM, first compound 3.16 µM",88.5%
same,"viability, T/C","second compound 0.1 µM, first compound 10 µM",87.6%
same,"viability, T/C",[17],79.3%
same,"viability, T/C",[18],78.1%
same,"viability, T/C",[19],62.2%
same,"viability, T/C",[20],82.8%
same,"viability, T/C","second compound 0.316 µM, first compound 3.16 µM",78.4%
same,"viability, T/C","second compound 0.316 µM, first compound 10 µM",115%
same,"viability, T/C",[23],85.9%
same,"viability, T/C",[24],66.4%
same,"viability, T/C",[25],76.6%
same,"viability, T/C",[26],74.8%
same,"viability, T/C","second compound 1 µM, first compound 3.16 µM",68.6%
same,"viability, T/C","second compound 1 µM, first compound 10 µM",72.3%
same,"viability, T/C",[29],78.9%
same,"viability, T/C",[30],72%
same,"viability, T/C",[31],60.6%
same,"viability, T/C",[32],80.9%
same,"viability, T/C","second compound 3.16 µM, first compound 3.16 µM",60.6%
same,"viability, T/C","second compound 3.16 µM, first compound 10 µM",76.4%
same,"viability, T/C",[34],65.3%
same,"viability, T/C",[35],74.2%
same,"viability, T/C",[36],54.8%
same,"viability, T/C",[37],63.5%
same,"viability, T/C","second compound 10 µM, first compound 3.16 µM",60.6%
same,"viability, T/C","second compound 10 µM, first compound 10 µM",75.3%
CC(C)NCC(C(=O)N1CCN(c2ncnc3c2C(C)CC3O)CC1)c1ccc(Cl)cc1 (centres undefined),"viability, T/C",compound 0.316 µM,96.2% [middle of 5 runs]
same,"viability, T/C",compound 1 µM,89.7% [middle of 5 runs]
same,"viability, T/C",compound 10 µM,97.3% [middle of 5 runs]
same,IC50,curve of compound,> 10000 nM
CC(=O)Nc1cccc(-n2c(=O)n(C3CC3)c(=O)c3c(Nc4ccc(I)cc4F)n(C)c(=O)c(C)c32)c1 + C=CC(=O)N1CCN(c2nc(OCC3CCCN3C)nc3c2CCN(c2cccc4cccc(C)c24)C3)CC1CC#N,IC50,[1],3.55 nM
same,IC50,[2],5.97 nM
same,IC50,[3],4.47 nM
same,IC50,[4],0.581 nM
same,IC50,[5],0.786 nM
same,"viability, T/C","second compound 0.0316 µM, first compound 0.0001 µM",90.6%
same,"viability, T/C","second compound 0.0316 µM, first compound 0.000316 µM",76%
same,"viability, T/C","second compound 0.0316 µM, first compound 0.001 µM",65.5%
same,"viability, T/C",[6],57.8%
same,"viability, T/C",[7],29.8%
same,"viability, T/C",[8],19.4%
same,"viability, T/C","second compound 0.1 µM, first compound 0.0001 µM",59.7%
same,"viability, T/C",[38],62.1%
same,"viability, T/C",[39],75.4%
same,"viability, T/C",[9],63.7%
same,"viability, T/C",[10],38.5%
same,"viability, T/C",[11],14.6%
same,"viability, T/C","second compound 0.316 µM, first compound 0.0001 µM",80%
same,"viability, T/C",[40],64%
same,"viability, T/C",[41],82.4%
same,"viability, T/C",[15],58.1%
same,"viability, T/C",[16],28.2%
same,"viability, T/C",[17],17.5%
same,"viability, T/C","second compound 1 µM, first compound 0.0001 µM",63.1%
same,"viability, T/C",[42],42.1%
same,"viability, T/C",[43],49.9%
same,"viability, T/C",[21],40%
same,"viability, T/C",[22],31%
same,"viability, T/C",[23],11.4%
same,"viability, T/C","second compound 3.16 µM, first compound 0.0001 µM",73.5%
same,"viability, T/C",[44],59.1%
same,"viability, T/C",[45],41%
same,"viability, T/C",[27],44%
same,"viability, T/C",[28],16.7%
same,"viability, T/C",[29],7.17%
CC(C)n1nc(-c2ccc3oc(N)nc3c2)c2c(N)ncnc21 + COc1cc2nc(C)nc(NC(C)c3cc(N)cc(C(F)(F)F)c3)c2cc1OC1CCOC1,IC50,[2],> 100 nM
same,IC50,[3],> 100 nM
same,IC50,[4],> 100 nM
same,IC50,[5],> 100 nM
same,IC50,[33],4.58 nM
same,"viability, T/C",[38],107%
same,"viability, T/C",[39],93.9%
same,"viability, T/C",[9],79.3%
same,"viability, T/C",[10],73%
same,"viability, T/C",[11],70.9%
same,"viability, T/C",[12],74.9%
same,"viability, T/C",[40],89.1%
same,"viability, T/C",[41],99.8%
same,"viability, T/C",[15],90.2%
same,"viability, T/C",[16],84.9%
same,"viability, T/C",[17],73.5%
same,"viability, T/C",[18],72.2%
same,"viability, T/C",[42],89.9%
same,"viability, T/C",[43],84.8%
same,"viability, T/C",[21],75.5%
same,"viability, T/C",[22],67.8%
same,"viability, T/C",[23],65.6%
same,"viability, T/C",[24],77.4%
same,"viability, T/C",[44],117%
same,"viability, T/C",[45],84.2%
same,"viability, T/C",[27],93.4%
same,"viability, T/C",[28],72.5%
same,"viability, T/C",[29],60.2%
same,"viability, T/C",[30],84.7%
same,"viability, T/C","second compound 10 µM, first compound 0.000316 µM",78.1%
same,"viability, T/C","second compound 10 µM, first compound 0.001 µM",71.7%
same,"viability, T/C",[46],54.3%
same,"viability, T/C",[47],42.6%
same,"viability, T/C",[34],30.2%
same,"viability, T/C",[35],45.6%
CCN1CCN(Cc2ccc(Nc3ncc(F)c(-c4cc(F)c5nc(C)n(C(C)C)c5c4)n3)nc2)CC1 + CNCc1ccccc1-c1csc(C(C)Nc2nc(C)nc3cc(OC)c(OC)cc23)c1,IC50,[2],640 nM
same,IC50,[3],178 nM
same,IC50,[4],207 nM
same,IC50,[5],22.4 nM
same,IC50,[33],< 3.16 nM
same,"viability, T/C",[9],86%
same,"viability, T/C",[10],67.9%
same,"viability, T/C",[11],88.8%
same,"viability, T/C",[12],82%
same,"viability, T/C",[13],61.4%
same,"viability, T/C",[14],42.8%
same,"viability, T/C",[15],98.1%
same,"viability, T/C",[16],76.4%
same,"viability, T/C",[17],51.9%
same,"viability, T/C",[18],60.9%
same,"viability, T/C",[19],48.1%
same,"viability, T/C",[20],42.9%
same,"viability, T/C",[21],79%
same,"viability, T/C",[22],61.4%
same,"viability, T/C",[23],59.6%
same,"viability, T/C",[24],59.2%
same,"viability, T/C",[25],49.3%
same,"viability, T/C",[26],21.2%
same,"viability, T/C",[27],56.3%
same,"viability, T/C",[28],56.5%
same,"viability, T/C",[29],47.3%
same,"viability, T/C",[30],16.2%
same,"viability, T/C",[31],31.1%
same,"viability, T/C",[32],29.7%
same,"viability, T/C",[46],0.31%
same,"viability, T/C",[47],0.24%
same,"viability, T/C",[34],0.75%
same,"viability, T/C",[35],0.26%
same,"viability, T/C",[36],0.21%
same,"viability, T/C",[37],2.71%
